Test results reported in patent publication US10385103B2, “Cell-permeable (ICP)-SOCS3 recombinant protein and uses thereof” (CELLIVERY THERAPEUTICS, INC., priority 2014, dated 2019).
Entries after “also recorded” stand apart in the source; their conditions may differ.

Assays:
RAW 264.7 cells [1] = test: Quantitative cell-permeability of FITC-labeled aMTD- or rPeptide-fused CRA recombinant proteins (flow cytometry); assay type: cell-based; conditions: for Relative Ratio to aMTD AVE: cell-permeability of rPeptide-fused CRA recombinant protein relative to average of 240 aMTDs, 10 μM FITC-labeled, 1 hour, 37° C., RAW 264.7 cells
In short: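 Uptake of fluorescently labeled, peptide-fused cargo proteins was quantified by flow cytometry (Guava, Millipore) and analyzed in FlowJo software. RAW 264.7 cells received 10 μM FITC-labeled protein for 1 hour at 37° C., were rinsed three times with cold PBS, and were trypsinized with 0.25% tripsin/EDTA for 20 minutes at 37° C. to remove bound protein before measurement. Permeability was expressed relative to reference proteins.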

NIH3T3 cells = test: Intracellular delivery and localization of FITC-labeled SOCS3 recombinant proteins (confocal microscopy); assay type: cell-based, mouse; conditions: 10 μM FITC-labeled SOCS3 protein, 1 hour, 37° C.
Experimental: (§1) To examine cell-permeability of SOCS3 recombinant protein, SOCS3 recombinant proteins were conjugated to 5/6-fluorescein isothiocyanate (FITC). RAW 264.7 (KCLB, Seoul, South Korea) (FIG. 20) or NIH3T3 cells (KCLB, Seoul, South Korea) (FIG. 21) were treated with 10 μM FITC-labeled SOCS3 recombinant proteins and cultivated for 1 hr at 37° C.
(§2) After cultivation, the cells were washed three times with ice-cold PBS (Phosphate-buffered saline, Hyclone, USA) and treated with proteinase K (10 μg/mL, SIGMA, USA) to remove surface-bound proteins, and internalized proteins were measured by flow cytometry (FlowJo cytometric analysis software, Guava, Millipore, Darmstadt, Germany). Untreated cells (gray) and equimolar concentration of unconjugated FITC (FITC only, green)-treated cells were served as control (FIG. 20). Each of NIH3T3 cells was incubated for 1 hour at 37° C. with 10 μM FITC-labeled SOCS3 protein. For nuclear staining, a mixture of […] Mounting Medium (Vector laboratories, Burlingame, Calif.) and DAPI (4′,6-diamidino-2-phenylindole) was added to NIH3T3 cells, and visualized using a confocal laser microscope (LSM700, Zeiss, Germany) (FIG. 21).

TNF-α = test: LPS/IFN-γ-induced cytokine secretion in peritoneal macrophages (cytometric bead array), TNF-α; assay type: cell-based, C3H/HeJ mice; conditions: 10 μM protein; IFN-γ and LPS
Experimental: (§3) Peritoneal macrophages were obtained from C3H/HeJ mice (Doo-Yeol Biotech Co. Ltd. Korea) Peritoneal macrophages were incubated with 10 μM SOCS3 recombinant proteins (1:HS3, 2:HM165S3, 3:HM165S3A and 4:HM165S3B, respectively) for 1 hr at 37° C. and then stimulated them with LPS (Lipopolysaccharide)(500 ng/ml) and/or IFN-γ (100 U/ml) without removing iCP-SOCS3 proteins for 3, 6, or 9 hrs. The culture media were collected, and the extracellular levels of cytokine (TNF-α, IL-6) were measured by a cytometric bead array (BD Pharmingen, San Diego, Calif., USA) according to the manufacturer's instructions.

RAW 264.7 cells [2] = test: Cell-permeability of FITC-labeled SOCS3 recombinant proteins (flow cytometry); assay type: cell-based; conditions: 10 μM FITC-labeled protein, 1 hr, 37° C.
Experimental: as §1
In this regard, RAW 264.7 cells were cultured in a DMEM medium containing 10% fetal bovine serum (FBS, Hyclone, USA) and […] of 1% penicillin/streptomycin (Hyclone, USA).
as §2

[3] = Solubility/yield of SOCS3 recombinant proteins expressed and purified from E. coli; assay type: physicochemical
Experimental: Thereafter, the recombinant protein gene-introduced E. coli was inoculated in 7 ml of LB medium, and then incubated at 37° C. overnight. The E. coli was inoculated in 700 ml of LB medium and incubated at 37° C. until OD600 reached 0.6. To this culture medium, 0.6 mM of isopropyl-β-D-thiogalactoside (IPTG, Gen Depot, USA) was added as a protein expression inducer, followed by further incubation at 37° C. for 3 hours. This culture medium was centrifuged at 4° C. and 8,000 rpm for 10 minutes and a supernatant was discarded to recover a cell pellet. The cell pellet thus recovered was suspended in a lysis buffer (100 mM NaH2PO4, 10 mM Tris-HCl, 8 M Urea, pH 8.0), and cells were disrupted by sonication (on/off time: 30 sec/30 sec, on time 2 hours, amplify 40%), and centrifuged at 15,000 rpm for 30 min to obtain a soluble fraction and an insoluble fraction.
After purification, the proteins were put in a SnakeSkin Dialysis Tubing bag (pore size: 10000 mw, Thermo scientific, USA) and then they were dialyzed by physiological buffer (DMEM). The strain lysate where protein expression was not induced, the strain lysate where protein expression was induced by addition of IPTG, and purified proteins were loaded on SDS-PAGE to analyze protein expression characteristics and expression levels (FIGS. 19 and 20).
Solubility of aMTD/SD-fused SOCS3 proteins was scored on a 5 point scale compared with that of SOCS3 proteins lacking the solubilization domain.

STAT3 = test: Inhibition of IFN-γ-induced STAT phosphorylation in PANC-1 cells (western blot), STAT3; assay type: cell-based; conditions: PANC-1, 10 ng/ml IFN-γ 15 min, 10 μM protein 2 hrs
Experimental: (§4) PANC-1 Cells (KCLB, Seoul, South Korea) were treated with 10 ng/ml IFN-γ (R&D systems, Abingdon, UK) for 15 min and treated with either DMEM (vehicle) or 10 μM aMTD/SD-fused SOCS3 recombinant proteins for 2 hrs. The cells were lysed in RIPA lysis buffer (Biosesang, Seongnam, Korea) containing proteinase inhibitor cocktail (Roche, Indianapolis, Ind., USA), incubated for 15 min at 4° C., and centrifuged at 13,000 rpm for 10 min at 4° C. Equal amounts of lysates were separated on 10% SDS-PAGE gels and transferred to a nitrocellulose membrane. The membranes were blocked using 5% skim milk in TBST and for western blot analysis incubated with the following antibodies: anti-phospho-STAT1 (Cell Signaling Technology, USA) and anti-phospho-STAT3 (Cell Signaling Technology, USA), then HRP conjugated anti-rabbit secondary antibody (Santacruz).
as §4, with “(vehicle) or 1, 5, 10 μM” for “(vehicle) or 10 μM”, “following antibodies: anti-phospho-STAT3 (Cell” for “following antibodies: anti-phospho-STAT1 (Cell Signaling Technology, USA) and anti-phospho-STAT3 (Cell”

HepG2 cells = test: Cell-permeability of FITC-labeled SOCS3 recombinant proteins in hepatocellular carcinoma cells (flow cytometry); assay type: cell-based, human; conditions: 10 μM FITC-labeled protein, 1 hr, 37° C.
Experimental: HepG2 cells (ATCC, Manassas, Va., USA) were seeded in a 12 well plate, grown to 90% confluence. Cells were treated with 10 μM FITC-labeled iCP-SOCS3 recombinant proteins and cultivated for 1 hr at 37° C.
After cultivation, the cells were treated with proteinase K (10 ug/mL, SIGMA, USA) and washed three times with ice-cold PBS (Phosphate-buffered saline, Hyclone, USA) to remove surface-bound proteins, and internalized proteins were measured by flow cytometry (FlowJo cytometric analysis software, Guava, Millipore, Darmstadt, Germany). Untreated cells (gray) and equimolar concentration of unconjugated FITC (FITC only, green)-treated cells were served as control (FIG. 57).

IL-6 = test: LPS/IFN-γ-induced cytokine secretion in peritoneal macrophages (cytometric bead array), IL-6; assay type: cell-based, C3H/HeJ mice; conditions: 10 μM protein; IFN-γ and LPS
Experimental: as §3

STAT1 = test: Inhibition of IFN-γ-induced STAT phosphorylation in PANC-1 cells (western blot), STAT1; assay type: cell-based; conditions: PANC-1, 10 ng/ml IFN-γ 15 min, 10 μM protein 2 hrs
Experimental: as §4

AGS cells = test: Induction of apoptosis by Annexin V/7-AAD staining in gastric carcinoma cells; assay type: cell-based; conditions: 10 uM, 14 hours
Experimental: AGS cells (gastric carcinoma cell line) (American Type Culture Collection; ATCC) were seeded in a 12-well plate at a density of 1×10^5 cells/well, and then treated with 10 uM of aMTD/SD-fused SOCS3 for 14 hours. Cancer cell death was analyzed by Annexin V analysis. Annexin V/7-Aminoactinomycin D (7-AAD) staining was performed using flow cytometry according to the manufacturer's guidelines (BD Pharmingen, San Diego, Calif., USA). Briefly, cells were washed three times with ice-cold PBS. The cells were then resuspended in 100 μl of binding buffer and incubated with 1 μl of 7-AAD and 1 μl of annexin V-PE for 30 min in the dark at 37° C. Flow cytometric analysis was immediately performed using a guava easyCyte™ 8 Instrument (Merck Millipore, Darmstadt, Germany).

[4] = cell-permeability of aMTD-fused CRA recombinant protein relative to negative control (A: rP38)
[5] = cell-permeability of aMTD-fused CRA recombinant protein relative to reference CPP (B: MTM12)
[6] = cell-permeability of aMTD-fused CRA recombinant protein relative to reference CPP (C: MTD85)

911 (VALALPAVVVAP; Amino acid Sequence of aMTD911) [compound 911]
Relative Ratio (Fold) A (RAW 264.7 cells [1]; [4]): 84.8 Fold | Relative Ratio (Fold) B (RAW 264.7 cells [1]; [5]): 56.8 Fold | Relative Ratio (Fold) C (RAW 264.7 cells [1]; [6]): 28.7 Fold | Relative Ratio (Fold) A (RAW 264.7 cells [1]; relative cell-permeability of aMTD vs reference A (not defined)): 84.8 Fold | Relative Ratio (Fold) B (RAW 264.7 cells [1]; relative cell-permeability of aMTD vs reference CPP B: MTM12): 56.8 Fold | Relative Ratio (Fold) C (RAW 264.7 cells [1]; relative cell-permeability of aMTD vs reference CPP C: MTD85): 28.7 Fold

921 (IWWFVVLPLVVP; Amino acid Sequence of rPeptide ID 921) [compound 921]
Relative Ratio to aMTD AVE (RAW 264.7 cells [1]): 0.14 | Relative Ratio (Fold) A (RAW 264.7 cells [1]; relative cell-permeability of rPeptide vs reference A (not defined)): 2.8 Fold | Relative Ratio (Fold) B (RAW 264.7 cells [1]; relative cell-permeability of rPeptide vs reference CPP B: MTM12): 1.9 Fold | Relative Ratio (Fold) C (RAW 264.7 cells [1]; relative cell-permeability of rPeptide vs reference CPP C: MTD85): 0.9 Fold

934 (LILAPAAVVAAA; Amino acid Sequence of rPeptide ID 934) [compound 934]
Relative Ratio to aMTD AVE (RAW 264.7 cells [1]): 0.28

938 (VPVLLPVVVPVP; Amino acid Sequence of rPeptide ID 938) [compound 938]
Relative Ratio to aMTD AVE (RAW 264.7 cells [1]): 0.28

964 (ALLVIAPAIAVP; Amino acid Sequence of aMTD864) [compound 964]
Relative Ratio (Fold) A (RAW 264.7 cells [1]; [4]): 8.2 Fold | Relative Ratio (Fold) B (RAW 264.7 cells [1]; [5]): 4.8 Fold | Relative Ratio (Fold) C (RAW 264.7 cells [1]; [6]): 2.8 Fold

HS3: His-tagged SOCS3 recombinant protein lacking an aMTD and a SD [reference compound]
intracellular delivery and localization (NIH3T3 cells): did not appear to enter cells | effect on TNF-α secretion (TNF-α): unchanged | cell-permeability (protein uptake) (RAW 264.7 cells [2]): did not appear to enter cells | solubility (tendency to precipitate) ([3]; expressed and purified in E. coli): largely insoluble; also recorded: less soluble | IFN-γ-induced phosphorylation of STAT3 (STAT3): STAT phosphorylation was readily detected | transduction into HepG2 cells (HepG2 cells): did not appear to enter cells | effect on IL-6 secretion (IL-6): unchanged | IFN-γ-induced phosphorylation of STAT1 (STAT1): STAT phosphorylation was readily detected

B1: M165S3B: his-tag-removed aMTD165-SOCS3-SDB recombinant protein (protein)
chain: ALAVPVALAIVPVTHSKFPAAGMSRPLDTSLRLKTFSSKSEYQLVVNAVRKLQESGFYWSAVTGGEANLLLSAEPAGTFLIRDSSDQRHFFTLSVKTQSGTKNLRIQCEGGSFSLQSDPRSTQPVPRFDCVLKLVHHYMPPPGAPSFPSPPTEPSSEVPEQPSAQPLPGSPPRRAYYIYSGGEKIPLVLSRPLSSNVATLQHLCRKTVNGHLDSYEKVTQLPGPIREFLDQYDAPLMAEQSDKDVKYYTLEEIQKHKDSKSTWLILHHKVYDLTKFLEEHPGGEEVLGEQAGGDATENFEDVGHSTDARELSKTYIIGELHPDDRSKIAKPSETL
modifications: Amino acid sequence of E.coli codon usage optimized M165S3B′
notes: his-tag-removed aMTD165-SOCS3-SDB recombinant protein
cell-permeability (protein uptake) (RAW 264.7 cells [2]): high cell permeability | induction of apoptosis (Annexin V) (AGS cells): showed high anticancer efficacy; also recorded: efficacy equivalent to or higher than HM165S3B | solubility/yield [3]: high solubility/yield
